SMILES strings stand for the structures.

14 compounds from ChEMBL document CHEMBL6078635, “Advances in diarylpyrimidines and related analogues as HIV-1 nonnucleoside reverse transcriptase inhibitors (2019-2023)” (Eur J Med Chem, 2024) can be followed below.

The subject of data set [1] is Human immunodeficiency virus 1. Put plainly: Antiviral activity against HIV1 harboring Y181C mutant infected in MT4 cells. The class given is functional, organism-based. To be noted: Human immunodeficiency virus 1, MT4.
The nature of data set [2]: Aqueous solubility of compound at pH 7.4 incubated for 24 hrs by LC-MS/MS analysis. The class given is physicochemical. To be noted: buffer.
Data set [3] deals with Human immunodeficiency virus 1. The data set is described as follows: Antiviral activity against HIV1 harboring E138K mutant infected in MT4 cells. Particulars: Human immunodeficiency virus 1, MT4. Type of data set: functional, organism-based.
Data set [4] concerns Human immunodeficiency virus 1. Put plainly: Antiviral activity against HIV1 harboring Y188L mutant infected in MT4 cells. Type of data set: functional, organism-based. To be noted: Human immunodeficiency virus 1, MT4.
Data set [5] has as its system Human immunodeficiency virus 1. The data set is described as follows: Antiviral activity against HIV-1 […] mutant. Type of data set: functional, organism-based.
Data set [6] has as its system Human immunodeficiency virus 1. Put plainly: Antiviral activity against HIV1 harboring K103N mutant infected in MT4 cells. Type of data set: functional, organism-based. To be noted: Human immunodeficiency virus 1, MT4.
Data set [7] relates to Human immunodeficiency virus 1. Put plainly: Antiviral activity against wild type HIV-1. Type of data set: functional, organism-based.
In data set [8] the test system is Human immunodeficiency virus 1. Put plainly: Antiviral activity against HIV1 harboring K103N/Y181C double mutant. The class given is functional, organism-based.
Data set [9] can be described thus: Lipophilicity, logP of compound. Type of data set: physicochemical. Particulars: octanol/water.
For data set [10], the system named is Human immunodeficiency virus 1. The data set is described as follows: Antiviral activity against HIV1 harboring F227L/V106A double mutant infected in MT4 cells. Type of data set: functional, organism-based. To be noted: Human immunodeficiency virus 1, MT4.
For data set [11], the system named is MT4. The data set is described as follows: Cytotoxicity against human MT4 cells assessed as reduction in cell viability after 5 days by MTT assay. Type of data set: functional. To be noted: MT4, 120 h, time 5 day. In general terms: Tetrazolium dyes change colour on reduction, which living cells bring about.
For data set [12], the system named is Human immunodeficiency virus 1. The data set is described as follows: Antiviral activity against HIV-1 Y188L mutant infected in human MT4 cells assessed as reduction in virus induced cytopathic effect incubated for 5 days by MTT method. The class given is functional, organism-based. Particulars: Human immunodeficiency virus 1, MT4, 120 h. Background: Damage to the host cells serves as the signal in cytopathic effect assays.

For data set [13], the system named is Human immunodeficiency virus 1. The data set is described as follows: Antiviral activity against wild type HIV-1 3B infected in human MT4 cells assessed as inhibition of virus-induced cytopathic effect measured for 5 days by MTT assay. To be noted: Human immunodeficiency virus 1, 3B, MT4, 120 h. The class given is functional, organism-based.
Data set [14] relates to Human immunodeficiency virus 1. The data set is described as follows: Antiviral activity against HIV1 harboring K103N mutant infected in MT4 cells assessed as inhibition of viral growth. Particulars: Human immunodeficiency virus 1, MT4. The class given is functional, organism-based.
Data set [15] relates to Human immunodeficiency virus 1. The data set is described as follows: Antiviral activity against HIV-1 3B harboring L100I mutant infected in MT4 cells assessed as reduction in virus induced cytopathic effect incubated for 5 days by MTT method. The class given is functional, organism-based. Particulars: Human immunodeficiency virus 1, 3B, MT4, 120 h.
Data set [16] concerns Human immunodeficiency virus 1. The data set is described as follows: Antiviral activity against HIV-1 3B harboring F227L/V106A double mutant infected in MT4 cells assessed as reduction in virus induced cytopathic effect incubated for 5 days by MTT method. The class given is functional, organism-based. Particulars: Human immunodeficiency virus 1, 3B, MT4, 120 h.
Data set [17] deals with Human immunodeficiency virus 1. Put plainly: Antiviral activity against NNRTI-resistant HIV-1 harboring Y181C mutant assessed as inhibition of viral growth. Type of data set: functional, organism-based.
The subject of data set [18] is Human immunodeficiency virus 1. Put plainly: Antiviral activity against HIV-1 3B harboring E138K mutant infected in MT4 cells assessed as reduction in virus induced cytopathic effect incubated for 5 days by MTT assay. The class given is functional, organism-based. To be noted: Human immunodeficiency virus 1, 3B, MT4, 120 h.
Data set [19] in a line: Metabolic stability in human liver microsomes assessed as half life measured upto 120 mins by LC-MS/MS analysis. The class given is ADME, Microsome. In general terms: Microsomes from liver hold many membrane-bound enzymes, among them those of drug oxidation.
Data set [20] can be described thus: Metabolic stability in human liver microsomes assessed as intrinsic clearance measured for 60 mins by LC-MS/MS analysis. Type of data set: ADME, Microsome. To be noted: read-out: CLH.
A further data set concerns MOLT-4. Put plainly: Cytotoxicity against human MOLT-4 cells assessed as reduction in cell viability by MTT assay. Type of data set: functional.
Data set [21] concerns Human immunodeficiency virus 1. Put plainly: Antiviral activity against HIV-1 3B infected in human MT4 cells assessed as inhibition of viral replication incubated for 5 days by MTT assay. Type of data set: functional, organism-based. Particulars: Human immunodeficiency virus 1, 3B, MT4, 120 h.
Data set [22] relates to MT4. Put plainly: Cytotoxicity against human MT4 cells assessed as reduction in cell viability. The class given is functional.
Data set [23] in a line: Selectivity index, ratio of CC50 for cytotoxicity against human MT4 cells to EC50 for antiviral activity against wild type HIV-1 IIIB infected in human MT4 cells. Particulars: read-out: Selectivity Index. The class given is toxicity, cell-based.
A further data set has as its system MT2. The data set is described as follows: Cytotoxicity against human MT2 cells. The class given is functional.
Data set [24] concerns the target Human immunodeficiency virus type 1 reverse transcriptase (Human immunodeficiency virus 1, UniProt Q72547). The data set is described as follows: Inhibition of wild type HIV-1 Reverse transcriptase.

One may read the EC50 as the concentration giving half of the maximal effect. The term solubility denotes the dissolved amount per volume that the medium holds. Low values mean a poorly soluble substance, high ones a readily soluble substance. Turning to `N#Cc1ccc(Nc2nc(N)cc(Oc3c(F)cc(-c4ccc(C#N)cc4)cc3F)n2)cc1`, the 50% effective concentration (EC50) came out at 32 nM in data set [1]; 8 nM in data set [3]; 1050 nM in data set [4]; 16 nM in [5]; 2 nM in [6]; 1.8 nM in data set [7]. The EC50 in data set [8] was 10 nM. The compound also had a solubility at 24 h in data set [2] below 1 µg/mL.
The logP is a log measure of how a compound divides between an organic and an aqueous phase. A lower logP goes with a more hydrophilic compound. On to `N#Cc1ccc(Nc2nccc(Oc3ccc4ccccc4c3)n2)cc1`, for which the logP in data set [9] came out at 5.36.
By CC50 is commonly meant the concentration giving 50% cytotoxicity. Consider `Cc1cc(/C=C/C#N)cc(C)c1Oc1nc(NC2CCN(Cc3ccc(B(O)O)cc3)CC2)nc2c1COC2`, for which the EC50 came out at 19.7 nM in data set [1]; 17.3 nM in [3]; 39.9 nM in data set [4]; 9.85 nM in [5]; 43.2 nM in data set [10]; 7.19 nM in [6]. In addition, the concentration for a half-maximal effect (EC50) in [7] came to 7.23 nM; in data set [8], 77.9 nM. Also, in the data set on MT4 [11], the CC50 amounted to 25600 nM.
`Cc1cc(-c2ccc(F)cc2)cc(C)c1Oc1nc(NC2CCN(Cc3ccc(C(N)=O)cc3)CC2)nc2ccsc12`: the EC50 in data set [12] is 51.4 nM; in [13], 12.8 nM; in data set [14], 11.7 nM; in [15], 61.1 nM; in data set [16] it was 56.6 nM; in data set [17] it was 36.1 nM. For the same compound, the EC50 is 575 nM in [8] and 34.8 nM in data set [18].
In general, half-life refers to the time in which the quantity being followed falls by half. Consider `N#Cc1ccc(Nc2ncc(CO)c(Nc3c(F)cc(-c4ccc(C#N)cc4)cc3F)n2)cc1`, for which, in data set [19], the half-life is 45.9 h. Further, the 50% effective concentration (EC50) turned out to be 8.2 nM in data set [1]; 3.5 nM in data set [3]; 162 nM in data set [4]; 1.9 nM in data set [5]; 0.9 nM in data set [7]. The CLint scaled in [20] amounted to 0.763 mL/min/kg. For the same compound, the CC50 with MOLT-4 was found to be 225000 nM.
In the case of `Cc1cc(-c2ccsc2)cc(C)c1Oc1nc(NC2CCN(Cc3ccc(C(N)=O)cc3)CC2)nc2ccsc12`, the EC50 in [12] was found to be 628 nM; in [13] it was 240 nM; in [14] it was 171 nM; in data set [15] it was 925 nM; in data set [16] it was 854 nM; in data set [17], 741 nM. Moreover, the EC50 in data set [8] came to 4520 nM; in [18] it was 739 nM.
Consider `Cc1cc(-c2ccoc2)cc(C)c1Oc1nc(NC2CCN(Cc3ccc(C(N)=O)cc3)CC2)nc2ccsc12`, for which the EC50 in data set [12] was 222 nM; in data set [13], 57.5 nM; in data set [14], 74.8 nM; in data set [15], 262 nM; in [16], 525 nM; in data set [17] it was 180 nM. The half-maximal effective concentration (EC50) amounted to 813 nM in data set [8] and 177 nM in [18].
As for `Cc1cc(-c2ccc(C#N)cc2)cc(C)c1Oc1nc(NC2CCN(Cc3ccc(C(N)=O)cc3)CC2)nc2ccsc12`, the EC50 in [12] turned out to be 23.9 nM; in [13], 9.93 nM; in [14] it was 6.02 nM; in data set [15], 10.5 nM; in data set [16], 97.2 nM; in [17], 18.9 nM. In addition, the results for the EC50 in data set [8] and in [18] were 125 nM and 23.2 nM, respectively.
With `N#Cc1ccc(Nc2nccc(C(C#N)c3ccc(-c4ccc(C#N)cc4)c(F)c3)n2)cc1` (configuration not stated), the EC50 is 20 nM in data set [21]; 870 nM in data set [1]; 170 nM in [3]; 9810 nM in [4]; 1210 nM in [5]; above 25600 nM in data set [10]. The concentration giving a half-maximal response (EC50) in data set [6] was 900 nM; in data set [8], above 36500 nM. For the same compound, the CC50 in the data set with MT4 [22] worked out at 36400 nM.
For `Cc1cc(C#CC2CCN(Cc3ccncc3)CC2)cc(C)c1Oc1ccnc(Nc2ccc(C#N)cc2)n1`, the selectivity ratio in data set [23] was found to be 101. The figures for the EC50 in data set [3], in data set [6] and in data set [7] were 190 nM, 50 nM and 19 nM, respectively. It took 192000 nM to reach half-maximal cytotoxicity in the data set with MT2 (CC50).
`COC(=O)n1ncc(-c2cc(C)c(Oc3ccnc(Nc4ccc(C#N)cc4)n3)c(C)c2)n1`: the EC50 in [3] amounted to 160 nM; in [6] it was 22 nM; in data set [7], 13 nM. Moreover, in the data set on MT2, the cytotoxic concentration (CC50) is above 242000 nM.
For orientation: IC50 means the midpoint of a concentration-inhibition curve. For `N#Cc1ccc(Nc2nccc(Oc3ccc4cccnc4c3Br)n2)cc1`, the IC50 in [24] is 11 nM. Besides, the 50% cytotoxic concentration (CC50) in the data set on MT2 was above 299000 nM.
Consider `Cc1cc(-c2ccc(C#N)cc2)cc(C)c1Oc1nc(NC2CCN(Cc3ccc(S(N)(=O)=O)cc3)CC2)nc2ccsc12`, for which the concentration for a half-maximal effect (EC50) is 53.6 nM in data set [12]; 17 nM in [13]; 13.2 nM in data set [14]; 27.4 nM in data set [15]; 59.9 nM in [16]; 30.8 nM in [17]. Also, the concentration for a half-maximal effect (EC50) in [8] stood at 103 nM; in data set [18] it was 44.4 nM.
`Cc1cc(/C=C/C#N)cc(C)c1Nc1ccnc(Nc2ccc(C#N)cc2)n1` [RILPIVIRINE]: the CC50 with MT4 [11] is above 3980 nM.
